For test [1], the system named is Streptococcus pneumoniae 10351. As to the kind of experiment: microbe, parasite or virus in culture. The class given is cell-based. Conditions: Streptococcus pneumoniae, 10351; 37° C., 24 hours; read-out: MIC values of in vitro antibacterial test results.
Test [2] has as its system Staphylococcus aureus 43300 (MRSA). As to the kind of experiment: antibacterial study in vivo, survival of infected kunming mice. Conditions: 30 days of observation.
Test [3] concerns Bacillus anthracis Bacillus 1. As to the kind of experiment: microbe, parasite or virus in culture. The class given is cell-based. Conditions: Bacillus anthracis, 24 h, read-out: MIC values of in vitro antibacterial test results.
Test [4] relates to Staphylococcus aureus 29231. As to the kind of experiment: microbe, parasite or virus in culture. The format is cell-based. The settings on record: Staphylococcus aureus, 29231; 37° C., 24 hours; read-out: MIC values of in vitro antibacterial test results.
Test [5] relates to Staphylococcus aureus 43300(MRSA). Nature of the test: microbe, parasite or virus in culture. The format is cell-based. The settings on record: Staphylococcus aureus, MRSA.
The subject of test [6] is Enterococcus faecalis F2518(VRE). Nature of the test: microbe, parasite or virus in culture. The format is cell-based. The settings on record: Enterococcus faecalis, VRE, 24 h, read-out: MIC values of in vitro antibacterial test results.
The test system of the next test is Oral Candida. Nature of the test: microbe, parasite or virus in culture. The settings on record: Candida. The class given is cell-based.
The next test has as its system Peel fungus. As to the kind of experiment: organism not typed. The format is cell-based. The settings on record: 37° C., 24 hours; read-out: MIC values of in vitro antibacterial test results.
Test [7] relates to Streptococcus pneumoniae M2. Nature of the test: microbe, parasite or virus in culture. The format is cell-based. Conditions: Streptococcus pneumoniae, M2; 37° C., 24 hours; read-out: MIC values of in vitro antibacterial test results.
The subject of test [8] is Enterococcus faecalis 29212. As to the kind of experiment: microbe, parasite or virus in culture. The settings on record: Enterococcus faecalis, 29212; 37° C., 24 hours; read-out: MIC values of in vitro antibacterial test results. The format is cell-based.
For test [9], the system named is Streptococcus agalactia B group. Nature of the test: microbe, parasite or virus in culture. The format is cell-based. The settings on record: Streptococcus; 37° C., 24 hours; read-out: MIC values of in vitro antibacterial test results.
Test [10] concerns F2518(VRE), Staphylococcus aureus resistant strain 43300(MRSA), 703 (MRSA), pneumococcal resistance bacteria 6303(PRSP). Nature of the test: microbe, parasite or virus in culture. The format is cell-based. Conditions: read-out: MIC values (μM).
For a further test, the system named is Bacillus cereus 2. As to the kind of experiment: microbe, parasite or virus in culture. The class given is cell-based. The settings on record: Bacillus cereus, 2; 37° C., 24 hours; read-out: MIC values of in vitro antibacterial test results.
The test system of the next test is Diphtheria bacilli. As to the kind of experiment: organism not typed. The class given is cell-based. The settings on record: 37° C., 24 hours; read-out: MIC values of in vitro antibacterial test results.
Test [11] deals with Streptococcus pneumoniae 6303 (PRSP). As to the kind of experiment: microbe, parasite or virus in culture. The class given is cell-based. The settings on record: Streptococcus pneumoniae, PRSP, 24 h, read-out: MIC values of in vitro antibacterial test results.
The next test relates to Clostridium perfringens. Nature of the test: microbe, parasite or virus in culture. The format is cell-based. Conditions: Clostridium perfringens, 24 h, read-out: MIC values of in vitro antibacterial test results.
Another test relates to Bacillus subtilis 168. As to the kind of experiment: microbe, parasite or virus in culture. The class given is cell-based. The settings on record: Bacillus subtilis, 168; 37° C., 24 hours; read-out: MIC values of in vitro antibacterial test results.
Test [12] deals with Staphylococcus aureus 703(MRSA). As to the kind of experiment: microbe, parasite or virus in culture. The format is cell-based. Conditions: Staphylococcus aureus, MRSA.
Where [13] appears, read: 24 h, read-out: MIC values of in vitro antibacterial test results.
Setting [14] is: 37° C., 24 hours, read-out: MIC values of in vitro antibacterial test results.

Read-outs that look alike come from different tables or passages of the source. Some results are limits rather than exact numbers.

As to `Cc1nn2c([O-])cc(-c3ccc(Oc4ccccc4)nc3)nc2c1-c1ccc(F)cc1F.[Na+]` [Compound 30, Sodium 3-(2,4-difluorophenyl)-2-methyl-5-(6-phenoxypyridin-3-yl)pyrazolo[1,5-α]pyrimidin-7-olate], the MIC in test [1] is over 150 mg/L; in [3], over 150 mg/L; in test [4], over 150 mg/L; in test [5] (setting [13]) it was under 100 mg/L; in test [6], under 150 mg/L; in the test on Oral Candida (read-out: MIC values (μM)), under 100 mg/L. Further, the MIC in the test on Oral Candida (setting [14]) was under 100 mg/L; in the test on Peel fungus, under 150 mg/L; in test [7], under 100 mg/L; in [8] it was under 150 mg/L; in test [9], over 150 mg/L; in [10] it was under 100 mg/L. The MIC in the test on Bacillus cereus 2 is under 150 mg/L; in the test with Diphtheria bacilli it was over 150 mg/L; in [11] it was over 150 mg/L; with Clostridium perfringens, over 150 mg/L; in the test on Bacillus subtilis 168, over 150 mg/L; in test [12] (setting [13]) it was under 150 mg/L. Further, the “Survival days” value in test [2] (dosage 30 mg/kg) turned out to be 2.4 days.
As to `Cc1nn2c([O-])cc(-c3ccc([N+](=O)[O-])cc3)nc2c1-c1ccc(F)cc1F.[Na+]` [Compound 3, Sodium 3-(2,4-difluorophenyl)-2-methyl-5-(4-nitrophenyl) pyrazolo[1,5-α]pyrimidin-7-olate], the MIC is under 100 mg/L in [1]; over 150 mg/L in [3]; under 100 mg/L in [4]; under 50 mg/L in test [5] (setting [13]); under 50 mg/L in test [5] (read-out: MIC values (μM)); under 150 mg/L in [6]. Moreover, the MIC in the test on Oral Candida (setting [14]) was over 150 mg/L; in the test with Peel fungus it was over 150 mg/L; in [7], under 100 mg/L; in [8] it was under 100 mg/L; in test [9], over 150 mg/L; in test [10], under 100 mg/L. The MIC is under 100 mg/L with Bacillus cereus 2; over 150 mg/L in the test on Diphtheria bacilli; under 100 mg/L in test [11]; over 150 mg/L in the test with Clostridium perfringens; under 100 mg/L with Bacillus subtilis 168; under 50 mg/L in test [12] (setting [13]). Besides, in [12] (read-out: MIC values (μM)), the MIC was under 50 mg/L. In addition, the “Survival days” value in test [2] (dosage 30 mg/kg) is recorded as 4.0 days.
For `Cc1nn2c([O-])cc(-c3ccc(Oc4ccccc4)cc3)nc2c1-c1ccc(F)cc1F.[Na+]` [Compound 10, Sodium 3-(2,4-difluorophenyl)-2-methyl-5-(4-phenoxyphenyl)pyrazolo[1,5-α]pyrimidin-7-olate], the MIC in [1] is under 100 mg/L; in [3], over 150 mg/L; in [4] it was under 100 mg/L; in test [5] (setting [13]) it was under 150 mg/L; in [6], under 150 mg/L; in the test on Oral Candida (setting [14]), under 150 mg/L. The MIC with Peel fungus was under 150 mg/L; in [7] it was under 150 mg/L; in test [8], under 100 mg/L; in [9] it was under 150 mg/L; in test [10], under 100 mg/L; in the test on Bacillus cereus 2, under 100 mg/L. For the same molecule, the MIC in the test on Diphtheria bacilli is over 150 mg/L; in test [11], under 150 mg/L; in the test with Clostridium perfringens, over 150 mg/L; in the test on Bacillus subtilis 168, under 100 mg/L; in test [12] (setting [13]), under 100 mg/L. The “Survival days” value in test [2] (dosage 25 mg/kg) was found to be 3.5 days.

The record behind these values is US20210094954A1, “PREPARATION METHODS AND APPLICATIONS OF 3,5-DISUBSTITUTED METHYLPYRAZOLO[1,5-A]PYRIMIDINE-7-HYDROXYLIC SALTS” (priority 2019, published 2021).
